According to patent US20070249560A1, “Hydrolysis resistant organomodified silyated surfactants” (priority 2006, published 2007):

Columns and labels:
[1] = Surface tension, Kruss surface tensiometer; format: physicochemical; settings: 0.1 wt % in 0.005M NaCl water
Description: Surface tension was measured using a Kruss surface tensiometer, with a sand blasted platinum blade as the sensor. Solutions of the various components were prepared at 0.1 wt % in 0.005M NaCl water (deionized), as an equilibrium aid.

[2] = Spreading of 10 μL droplet on polystyrene Petri dishes; format: physicochemical; settings: 30 seconds
Description: Spreading was determined by applying a 10 μL droplet, of surfactant solution to polystyrene Petri dishes (Fisher Scientific) and measuring the spread diameter (mm) after 30 seconds, at a relative humidity between 50 and 70% (at 22 to 25° C.). The solution was applied with an automatic pipette to provide droplets of reproducible volume. Deionized water that was further purified with a Millipore filtration system was used to prepare the surfactant solutions.

| Compound | Surface Tension [1] [mN/m] | Spread Diameter (mm) ([2]; 0.1% weight surfactant) | Spread Diameter (mm) ([2]; 0.5% weight surfactant) | Spread Diameter (mm) ([2]; 0.05% weight surfactant) | Spread Diameter (mm) ([2]; 0.3% weight surfactant) |
| --- | --- | --- | --- | --- | --- |
| C[Si](C)(C)C[Si](C)(C)CCCOCCOCCOCCOCCO [Product 6] | 22.5 | 45 | 47 | 40 | 53 |
| Octylphenolethoxylate, containing 10 polyoxyethylene units [OPE, reference compound] | 31.8 | 9 | 10 |  |  |

More lines, now with the values ahead:

| Surface Tension [1] [mN/m] | Spread Diameter (mm) ([2]; 0.1% weight surfactant) | Spread Diameter (mm) ([2]; 0.5% weight surfactant) | Spread Diameter (mm) ([2]; 0.05% weight surfactant) | Spread Diameter (mm) ([2]; 0.3% weight surfactant) | Compound |
| --- | --- | --- | --- | --- | --- |
| 26.7 | 7 | 7 |  |  | C[Si](C)(C)CC[Si](C)(C)CCCOCCOCCOCCOCCOCCOCCOCCOCCOCCOCCOCCO [Product 9] |
| 22.7 | 42 | 49 | 30 | 48 | C[Si](C)(C)CC[Si](C)(C)CCCOCCOCCOCCOCCO [Product 7] |
| 27.7 | 7 | 7 |  |  | C[Si](C)(C)C[Si](C)(C)CCCOCCOCCOCCOCCOCCOCCOCCOCCOCCOCCOCCO [Product 8] |
